Reference: US20100267561A1, “HERBICIDAL PYRIDAZINONE DERIVATIVES” (priority 2007, published 2010)

Assays:
Test in all cases: Test E pre-/postemergence plant response
Type in all cases: in vivo
[1] = system: itchgrass (Rottboellia cochinchinensis); details: scale 0 to 100
How it was run: (§1)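 Plant response was judged by eye relative to controls, 0 meaning no effect and 100 complete control, after 14 to 21 days under greenhouse conditions. Compound was formulated in a non-phytotoxic solvent mixture with surfactant.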

[2] = system: naked crabgrass (Digitaria nuda); details: scale 0 to 100
How it was run: as §1

[3] = system: dallisgrass (Paspalum dilatatum); details: scale 0 to 100
How it was run: as §1

[4] = system: green foxtail (Setaria viridis); details: scale 0 to 100
How it was run: as §1

[5] = system: Italian ryegrass (Lolium multiflorum); details: scale 0 to 100
How it was run: as §1

[6] = system: large crabgrass (Digitaria sanguinalis); details: scale 0 to 100
How it was run: as §1

[7] = system: annual bluegrass (Poa annua); details: scale 0 to 100
How it was run: as §1

[8] = system: broadleaf signalgrass (Brachiaria platyphylla); details: scale 0 to 100
How it was run: as §1

[9] = system: common chickweed (Stellaria media); details: Postemergence, scale 0 to 100
How it was run: as §1

[10] = system: common groundsel (Senecio vulgaris); details: scale 0 to 100
How it was run: as §1

[11] = system: goosegrass (Eleusine indica); details: scale 0 to 100
How it was run: as §1

[12] = system: guineagrass (Panicum maximum); details: scale 0 to 100
How it was run: as §1

[13] = system: johnsongrass (Sorghum halepense); details: scale 0 to 100
How it was run: as §1

[14] = system: purple nutsedge (Cyperus rotundus); details: scale 0 to 100
How it was run: as §1

[15] = system: surinam grass (Brachiaria decumbens); details: scale 0 to 100
How it was run: as §1

CCc1cc(-c2ccc(C(F)(F)F)cc2)nn1-c1c(O)cnn(C)c1=O [Compound 11, 4-[5-ethyl-3-[4-(trifluoromethyl)phenyl]-1H-pyrazol-1-yl]-5-hydroxy-2-methyl-3(2H)-pyridazinone]
98: Plant response rating, Itchgrass ([1]; Postemergence, 31 g ai/ha) | Plant response rating, Crabgrass, Naked ([2]; Postemergence, 31 g ai/ha) | Plant response rating, Foxtail, Green ([4]; 16 g ai/ha, Preemergence) | Plant response rating, Foxtail, Green ([4]; 31 g ai/ha, Preemergence) | Plant response rating, Foxtail, Green ([4]; Postemergence, 16 g ai/ha) | Plant response rating, Guineagrass ([12]; 16 g ai/ha, Preemergence) | Plant response rating, Guineagrass ([12]; 31 g ai/ha, Preemergence) | Plant response rating, Guineagrass ([12]; Postemergence, 16 g ai/ha) | Plant response rating, Guineagrass ([12]; Postemergence, 31 g ai/ha)
100: Plant response rating, Crabgrass, Naked ([2]; 31 g ai/ha, Preemergence) | Plant response rating, Foxtail, Green ([4]; Postemergence, 31 g ai/ha) | Plant response rating, Ryegrass, Italian ([5]; 31 g ai/ha, Preemergence) | Plant response rating, Crabgrass, Large ([6]; 31 g ai/ha, Preemergence) | Plant response rating, Crabgrass, Large ([6]; Postemergence, 31 g ai/ha) | Plant response rating, Signalgrass ([8]; 31 g ai/ha, Preemergence) | Plant response rating, Signalgrass ([8]; Postemergence, 31 g ai/ha) | Plant response rating, Johnsongrass ([13]; Postemergence, 8 g ai/ha) | Plant response rating, Johnsongrass ([13]; Postemergence, 16 g ai/ha) | Plant response rating, Johnsongrass ([13]; Postemergence, 31 g ai/ha) | Plant response rating, Surinam Grass ([15]; Postemergence, 16 g ai/ha) | Plant response rating, Surinam Grass ([15]; Postemergence, 31 g ai/ha)
70: Plant response rating, Crabgrass, Large ([6]; Postemergence, 8 g ai/ha)
40: Plant response rating, Crabgrass, Naked ([2]; 8 g ai/ha, Preemergence)
30: Plant response rating, Crabgrass, Large ([6]; 16 g ai/ha, Preemergence)
60: Plant response rating, Dallisgrass ([3]; 4 g ai/ha, Postemergence) | Plant response rating, Foxtail, Green ([4]; 4 g ai/ha, Postemergence) | Plant response rating, Crabgrass, Large ([6]; 4 g ai/ha, Postemergence)
0: Plant response rating, Itchgrass ([1]; 4 g ai/ha, Postemergence) | Plant response rating, Itchgrass ([1]; Preemergence, 4 g ai/ha) | Plant response rating, Foxtail, Green ([4]; Preemergence, 4 g ai/ha) | Plant response rating, Crabgrass, Large ([6]; 8 g ai/ha, Preemergence) | Plant response rating, Crabgrass, Large ([6]; Preemergence, 4 g ai/ha) | Plant response rating, Bluegrass ([7]; 4 g ai/ha, Postemergence) | Plant response rating, Bluegrass ([7]; 8 g ai/ha, Preemergence) | Plant response rating, Bluegrass ([7]; 16 g ai/ha, Preemergence) | Plant response rating, Bluegrass ([7]; 31 g ai/ha, Preemergence) | Plant response rating, Bluegrass ([7]; Postemergence, 8 g ai/ha) | Plant response rating, Bluegrass ([7]; Postemergence, 16 g ai/ha) | Plant response rating, Bluegrass ([7]; Postemergence, 31 g ai/ha) | Plant response rating, Bluegrass ([7]; Preemergence, 4 g ai/ha) | Plant response rating, Signalgrass ([8]; Preemergence, 4 g ai/ha) | Plant response rating, Chickweed ([9]; 4 g ai/ha) | Plant response rating, Chickweed ([9]; 8 g ai/ha) | Plant response rating, Chickweed ([9]; 16 g ai/ha) | Plant response rating, Chickweed ([9]; 31 g ai/ha) | Plant response rating, Groundsel ([10]; 4 g ai/ha, Postemergence) | Plant response rating, Groundsel ([10]; 16 g ai/ha, Preemergence) | Plant response rating, Groundsel ([10]; 31 g ai/ha, Preemergence) | Plant response rating, Groundsel ([10]; Postemergence, 8 g ai/ha) | Plant response rating, Groundsel ([10]; Postemergence, 16 g ai/ha) | Plant response rating, Groundsel ([10]; Postemergence, 31 g ai/ha) | Plant response rating, Groundsel ([10]; Preemergence, 4 g ai/ha) | Plant response rating, Guineagrass ([12]; Preemergence, 4 g ai/ha) | Plant response rating, Nutsedge, Purple ([14]; 4 g ai/ha, Postemergence) | Plant response rating, Nutsedge, Purple ([14]; 16 g ai/ha, Preemergence) | Plant response rating, Nutsedge, Purple ([14]; 31 g ai/ha, Preemergence) | Plant response rating, Nutsedge, Purple ([14]; Postemergence, 8 g ai/ha) | Plant response rating, Surinam Grass ([15]; Preemergence, 4 g ai/ha)
25: Plant response rating, Crabgrass, Naked ([2]; 4 g ai/ha, Postemergence) | Plant response rating, Goosegrass ([11]; 8 g ai/ha, Preemergence) | Plant response rating, Goosegrass ([11]; Preemergence, 4 g ai/ha) | Plant response rating, Surinam Grass ([15]; 4 g ai/ha, Postemergence)
65: Plant response rating, Itchgrass ([1]; 16 g ai/ha, Preemergence)
10: Plant response rating, Dallisgrass ([3]; Preemergence, 4 g ai/ha) | Plant response rating, Goosegrass ([11]; 4 g ai/ha, Postemergence)
90: Plant response rating, Crabgrass, Naked ([2]; Postemergence, 8 g ai/ha) | Plant response rating, Dallisgrass ([3]; Postemergence, 16 g ai/ha) | Plant response rating, Dallisgrass ([3]; Postemergence, 31 g ai/ha) | Plant response rating, Foxtail, Green ([4]; Postemergence, 8 g ai/ha) | Plant response rating, Ryegrass, Italian ([5]; Postemergence, 8 g ai/ha) | Plant response rating, Signalgrass ([8]; 4 g ai/ha, Postemergence) | Plant response rating, Signalgrass ([8]; 16 g ai/ha, Preemergence) | Plant response rating, Signalgrass ([8]; Postemergence, 8 g ai/ha) | Plant response rating, Signalgrass ([8]; Postemergence, 16 g ai/ha) | Plant response rating, Goosegrass ([11]; 31 g ai/ha, Preemergence) | Plant response rating, Guineagrass ([12]; 4 g ai/ha, Postemergence) | Plant response rating, Johnsongrass ([13]; 16 g ai/ha, Preemergence)
75: Plant response rating, Itchgrass ([1]; Postemergence, 8 g ai/ha) | Plant response rating, Dallisgrass ([3]; Postemergence, 8 g ai/ha) | Plant response rating, Ryegrass, Italian ([5]; 4 g ai/ha, Postemergence) | Plant response rating, Johnsongrass ([13]; Preemergence, 4 g ai/ha)
80: Plant response rating, Itchgrass ([1]; 31 g ai/ha, Preemergence) | Plant response rating, Ryegrass, Italian ([5]; 16 g ai/ha, Preemergence) | Plant response rating, Goosegrass ([11]; Postemergence, 16 g ai/ha) | Plant response rating, Surinam Grass ([15]; Postemergence, 8 g ai/ha)
95: Plant response rating, Crabgrass, Naked ([2]; 16 g ai/ha, Preemergence) | Plant response rating, Crabgrass, Naked ([2]; Postemergence, 16 g ai/ha) | Plant response rating, Ryegrass, Italian ([5]; Postemergence, 16 g ai/ha) | Plant response rating, Ryegrass, Italian ([5]; Postemergence, 31 g ai/ha) | Plant response rating, Crabgrass, Large ([6]; Postemergence, 16 g ai/ha) | Plant response rating, Guineagrass ([12]; Postemergence, 8 g ai/ha) | Plant response rating, Johnsongrass ([13]; 4 g ai/ha, Postemergence) | Plant response rating, Johnsongrass ([13]; 31 g ai/ha, Preemergence) | Plant response rating, Surinam Grass ([15]; 16 g ai/ha, Preemergence) | Plant response rating, Surinam Grass ([15]; 31 g ai/ha, Preemergence)
20: Plant response rating, Dallisgrass ([3]; 8 g ai/ha, Preemergence) | Plant response rating, Ryegrass, Italian ([5]; Preemergence, 4 g ai/ha)
85: Plant response rating, Itchgrass ([1]; Postemergence, 16 g ai/ha) | Plant response rating, Dallisgrass ([3]; 31 g ai/ha, Preemergence) | Plant response rating, Goosegrass ([11]; Postemergence, 31 g ai/ha)
50: Plant response rating, Foxtail, Green ([4]; 8 g ai/ha, Preemergence) | Plant response rating, Goosegrass ([11]; 16 g ai/ha, Preemergence)
35: Plant response rating, Dallisgrass ([3]; 16 g ai/ha, Preemergence) | Plant response rating, Goosegrass ([11]; Postemergence, 8 g ai/ha)
